Test results: patent US9234006B2, “Compounds” (Novacta Biosystems Limited, priority 2011, dated 2016)
Where a name gives a salt, the structure may show the parent alone. Read-outs that look alike come from different tables or passages of the source. Marks after values point to notes of the source that are not given here. Where a SMILES comes first, the peptide text is derived from it. Bridges are numbered along the chain shown (N, C = ends). [ ]: non-standard residue; d: D form. The star is where a group is joined. ξ: configuration not given here. Thr(3ξ) = CC(O)[C@H](N)C(=O)O; Dab = NCC[C@H](N)C(=O)O; X1 = CCCCCCC(O)C(=O)*; GABA = NCCCC(=O)O

What was measured:
A. baumannii ATCCBAA-747 = assay: MIC susceptibility testing, broth microdilution in CaMHB; format: cell-based, Acinetobacter baumannii
How it was run: (§1)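 Inoculum prep: 3 to 4 colonies into CaMHB, 18-20 h at 37° C/250 rpm; 100-fold subculture to OD600 0.2-0.3; further 100-fold dilution to inoculate. Duplicate determinations.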

A. baumannii NCTC13423 = assay: as above; format: cell-based, Acinetobacter baumannii
How it was run: as §1

[1] = system: A. baumannii clinical isolates and resistant strains; format: cell-based; conditions: clinical isolates and resistant strains
Description: (§2) The in vitro antibacterial activities of the compounds of examples 2 and 6 were evaluated against a panel of […] Gram-negative bacterial isolates alongside Colistin. The panel consisted of 100 clinical isolates of each of A. baumannii, E. coli, K. pneumoniae and P. aeruginosa. The panel represented the current epidemiology in Europe and the USA and included a number of relevant strains with defined resistant phenotypes to current clinically-used antibacterial agents. These resistant strains included 20 A. baumannii, 22 E. coli, 25 K. pneumoniae and 20 P. aeruginosa strains.
(§3) All compounds were tested up to a maximum concentration of 64 μg/mL with the exception of colistin, which was evaluated up to a maximum concentration of 16 μg/mL.

[2] = system: K. pneumoniae clinical isolates and resistant strains; format: cell-based; conditions: clinical isolates and resistant strains
Description: as §2, §3

[3] = system: P. aeruginosa clinical isolates and resistant strains; format: cell-based; conditions: clinical isolates and resistant strains
Description: as §2, §3

[4] = parameters: species or system rats; conditions: rat, in vivo, 8 mg/kg
Description: Colistin and the example compounds were prepared in saline. Compounds were introduced via the jugular canula twice a day 7 hours apart for seven days. […] The dose regimen is set out in Table 8 below.

HK-2 cell line = conditions: 24 h incubation, resazurin reduction; Table 7
Description: The renal cell toxicity of the compounds was assessed in an in vitro assay using the HK-2 cell line, an immortalized proximal tubule cell line derived from a normal human kidney. The endpoint to describe the toxicity of the compounds was the reduction of resazurin correlating with the metabolic activity of the cells.
Cells were cultured in 150 cm^2 flasks in 25 mL supplemented KSF (with 5 ng/mL EGF and 50 μg/mL BPE). Cells were maintained at 70% confluence with a maximum of 25 passages. Day 1: Media was removed and cells were washed with 10 ml DPBS. […] After 1 to 2 minutes incubation, 14 ml media was added to the flask to inactivate the trypsin. The cell suspension was transferred to a centrifuge tube and the cells pelleted at 1000 rpm for 6 minutes. The cell pellet was then resuspended in fresh media supplemented with EGF and BPE. […] 7500 cells were dispensed in each well in a volume of 160 μl and incubated at 37° C. for 24 h.
Day 2: Test compounds were prepared directly into the media. […] The microtiter plates were removed from the incubator and the media replaced with 100 μl of the dilutions of the compound solution. Every set of concentration was done in triplicate, and positive and negative controls were added to each plate. The plates were then incubated for 24 h at 37° C. with 5% CO2 in a humidified atmosphere.
Day 3: The reagent containing the resazurin (CellTiter-Blue, Promega) was diluted in PBS (1:4) and added at 20% (v/v) to each well. The plates were then incubated at 37° C. for 2 h before the fluorescent reduction product was detected.
Media only background values were subtracted before the data was analysed using GraphPad Prism. Compound concentration values were plotted as log values to enable a dose-response curve to be fitted and IC50 values determined (Table 7).
The renal cell toxicity of the additional example compounds was assessed in an in vitro assay using the HK-2 cell as described in the example above.

[5] = system: Escherichia coli isolate ATCC25922; format: in vivo; conditions: thigh
Description: Groups of 5 female specific-pathogen-free CD-1 mice weighing 22±2 g were used. The animals were made neutropenic by intraperitoneal administration of cyclophosphamide on days −4 (150 mg/kg) and −1 (100 mg/kg). […] Examples 2, 4, 5, 6, 7, 8, 10, 11 and polymyxin B were prepared in Normal Saline at 2 mg/mL and the solution was adjusted to pH 6-7 by addition of 0.1M H2SO4 or 4.2% NaHCO3 as required. Twenty-four hours after infection, the mice were euthanized humanely. The muscle of the right thigh of each animal was harvested, homogenized, serially diluted and plated on Brain Heart Infusion agar+0.5% charcoal (w/v) for CFU determination. Decrease of the total CFU of right thigh as compared to control counts at 24 hrs post-infection was determined for each dose group. […] The in vivo efficacy of the compound of Example 14 was evaluated in a mouse thigh infection model of E. coli. using the methods described in the examples above. The result is summarized in Table 5A in comparison with Polymyxin B.

[6] = Table 4A, different batches of cation-adjusted Muller-Hinton broth

## CCCCCCC(O)C(=O)N[C@H](C(=O)N[C@@H](CCN)C(=O)N[C@H]1CCNC(=O)[C@H](C(C)O)NC(=O)[C@H](CCN)NC(=O)[C@H](CCN)NC(=O)[C@H](CC(C)C)NC(=O)[C@@H](Cc2ccccc2)NC(=O)[C@H](CCN)NC1=O)C(C)O (stereo partly drawn) [Example 2, [2(R,S)-2-Hydroxyoctanoyl] Polymyxin B Nonapeptide, Sulphate Salt] (X1-[Thr(3ξ)][Dab][Dab][Dab][dF]L[Dab][Dab][Thr(3ξ)]; lactam 3-C)
A. baumannii ATCCBAA-747; Table 4
  MIC: 2 micrograms/mL
A. baumannii ATCCBAA-747; [6]
  MIC: 2 micrograms/mL
A. baumannii NCTC13423; Table 4
  MIC: 1 micrograms/mL
A. baumannii NCTC13423; [6]
  MIC: 1 micrograms/mL
[1]
  MIC50 Clinical isolates: 4 µg/mL
  MIC50 Resistant strains: 4 µg/mL
  MIC90 Clinical isolates: 8 µg/mL
  MIC90 Resistant strains: 4 µg/mL
  MIC Range Clinical isolates: 1 to 32 µg/mL
  MIC Range Resistant strains: 2 to 4 µg/mL
[2]
  MIC50 Clinical isolates: 8 µg/mL
  MIC50 Resistant strains: 8 µg/mL
  MIC90 Clinical isolates: 32 µg/mL
  MIC90 Resistant strains: 32 µg/mL
[3]
  MIC50 Clinical isolates: 2 µg/mL
  MIC50 Resistant strains: 2 µg/mL
  MIC90 Clinical isolates: 4 µg/mL
  MIC90 Resistant strains: 4 µg/mL
  MIC Range Clinical isolates: 1 to 8 µg/mL
  MIC Range Resistant strains: 1 to 4 µg/mL
[4]
  levels of the renal biomarker NAG in urine compared to Colistin at the same dose regimen: significantly reduced levels
  levels of the renal biomarker albumin in urine compared to Colistin at the same dose regimen: significantly reduced levels
  levels of the renal biomarker cystatin C in urine compared to Colistin at the same dose regimen: significantly reduced levels

## CC(C)C[C@@H]1NC(=O)[C@@H](Cc2ccccc2)NC(=O)[C@H](CCN)NC(=O)[C@@H](NC(=O)[C@H](CCN)NC(=O)[C@@H](NC(=O)CCCN)[C@@H](C)O)CCNC(=O)[C@H]([C@@H](C)O)NC(=O)[C@H](CCN)NC(=O)[C@H](CCN)NC1=O [Example 6, 4-Aminobutanoyl Polymyxin B Nonapeptide, Sulphate Salt] (H-[GABA]T[Dab][Dab][Dab][dF]L[Dab][Dab]T; lactam 4-C)
[1]
  MIC50 Clinical isolates: 2 µg/mL
  MIC50 Resistant strains: 2 µg/mL
  MIC90 Clinical isolates: 8 µg/mL
  MIC90 Resistant strains: 4 µg/mL
  MIC Range Resistant strains: 1 to 4 µg/mL
[2]
  MIC50 Clinical isolates: >64 µg/mL
  MIC50 Resistant strains: >64 µg/mL
  MIC90 Clinical isolates: >64 µg/mL
  MIC90 Resistant strains: >64 µg/mL
[3]
  MIC50 Clinical isolates: 0.25 µg/mL
  MIC50 Resistant strains: 0.5 µg/mL
  MIC90 Clinical isolates: 16 µg/mL
  MIC90 Resistant strains: 8 µg/mL
  MIC Range Clinical isolates: 0.06 to 64 µg/mL
  MIC Range Resistant strains: 0.12 to 16 µg/mL
HK-2 cell line
  IC50 HK-2 cells: 154 µg/mL
[4]
  levels of the renal biomarker NAG in urine compared to Colistin at the same dose regimen: significantly reduced levels
  levels of the renal biomarker albumin in urine compared to Colistin at the same dose regimen: significantly reduced levels
  levels of the renal biomarker cystatin C in urine compared to Colistin at the same dose regimen: significantly reduced levels

## Polymyxin B [reference compound]
A. baumannii ATCCBAA-747; Table 4
  MIC: 0.25 micrograms/mL
A. baumannii ATCCBAA-747; [6]
  MIC: 0.125 micrograms/mL
A. baumannii NCTC13423; Table 4
  MIC: 0.25 micrograms/mL
A. baumannii NCTC13423; [6]
  MIC: <0.06 micrograms/mL
[5]; neutropenic CD-1 mice, total daily dosage 3 mg/kg (1.5 mg/kg BID) subcutaneous, 24 h post-infection, Table 5
  Mean log10 CFU reduction vs. control: 2.5 ^a log10 CFU
[5]; neutropenic CD-1 mice, total daily dosage 10 mg/kg (5 mg/kg BID) subcutaneous, 24 h post-infection, Table 5
  Mean log10 CFU reduction vs. control: 4.2 ^a log10 CFU
[5]; neutropenic mice, total daily dosage 3 mg/kg, additional study, Table 5A
  Mean log10 CFU reduction vs. control: 3.75 log10 CFU
[5]; neutropenic mice, total daily dosage 10 mg/kg, additional study, Table 5A
  Mean log10 CFU reduction vs. control: 4.87 log10 CFU
HK-2 cell line
  IC50 HK-2 cells: 11^b μg/mL
